Reference: the supplement of paper PMC13380429

Experiments:
A549-ACE2 [1] = experiment: phospholipidosis EC50; higher = less potent phospholipidosis inducer
[2] = tested on: A549-ACE2 infected with SARS-CoV-2; experiment: morphology score (similarity to uninfected cells); higher = more like uninfected cells; settings: 24 h
HepG2 [3] = experiment: drug sensitivity score (DSS) for viability; higher = more toxic; extreme values may be limits of the assay; settings: 72 h
Caco-2 [4] = experiment: as above; settings: 72 h
U2OS [5] = experiment: as above; settings: 72 h
Vero E6 [6] = experiment: as above; settings: 72 h
Calu-3 [7] = experiment: as above; settings: 72 h
[8] = tested on: A549-ACE2 infected with SARS-CoV-2; experiment: SARS-CoV-2 infection rate relative to DMSO; higher = more infection; settings: 24 h
A549-ACE2 [9] = experiment: drug-induced phospholipidosis relative to tamoxifen; higher = more phospholipidosis
HepG2 [10] = experiment: cell viability relative to DMSO; higher = less toxic; settings: 72 h
Caco-2 [11] = experiment: as above; settings: 72 h
U2OS [12] = experiment: as above; settings: 72 h
Vero E6 [13] = experiment: as above; settings: 72 h
Calu-3 [14] = experiment: as above; settings: 72 h
[15] = tested on: A549-ACE2 infected with SARS-CoV-2; experiment: cell count relative to DMSO; higher = less toxic; settings: 24 h
HepG2 [16] = experiment: relative viability EC50 (midpoint between 100% and the lowest measured viability); higher = less toxic; settings: 72 h
Caco-2 [17] = experiment: as above; settings: 72 h
U2OS [18] = experiment: as above; settings: 72 h
Vero E6 [19] = experiment: as above; settings: 72 h
Calu-3 [20] = experiment: as above; settings: 72 h

CC[C@@H](C)CNCC(=O)N1CCc2sccc2[C@@H]1COc1cccc(C)c1 [RU-SKI-43]
phospholipidosis EC50 (A549-ACE2 [1]; 24 h): 3.7 µM
phospholipidosis EC50 (A549-ACE2 [1]; 48 h): 4.58 µM
phospholipidosis EC50 (A549-ACE2 [1]; 72 h): 6.66 µM
morphology score ([2]; 0.3 µM): -0.05
morphology score ([2]; 3 µM): 0.65
morphology score ([2]; 10 µM): 0.83
morphology score ([2]; 30 µM): 0.3
drug sensitivity score (HepG2 [3]): 0
drug sensitivity score (Caco-2 [4]): 0.2
drug sensitivity score (U2OS [5]): 0
drug sensitivity score (Vero E6 [6]): 0
drug sensitivity score (Calu-3 [7]): 0.3
SARS-CoV-2 infection rate ([8]; 0.3 µM): 102%
SARS-CoV-2 infection rate ([8]; 3 µM): 60%
SARS-CoV-2 infection rate ([8]; 10 µM): 24%
SARS-CoV-2 infection rate ([8]; 30 µM): 24%
drug-induced phospholipidosis (A549-ACE2 [9]; 0.3 µM, 24 h): 2.31%
drug-induced phospholipidosis (A549-ACE2 [9]; 0.3 µM, 48 h): 1.76%
drug-induced phospholipidosis (A549-ACE2 [9]; 0.3 µM, 72 h): 3.03%
drug-induced phospholipidosis (A549-ACE2 [9]; 0.833333 µM, 24 h): 9.84%
drug-induced phospholipidosis (A549-ACE2 [9]; 0.833333 µM, 48 h): 10.7%
drug-induced phospholipidosis (A549-ACE2 [9]; 0.833333 µM, 72 h): 9.34%
drug-induced phospholipidosis (A549-ACE2 [9]; 3.33333 µM, 24 h): 41%
drug-induced phospholipidosis (A549-ACE2 [9]; 3.33333 µM, 48 h): 27.3%
drug-induced phospholipidosis (A549-ACE2 [9]; 3.33333 µM, 72 h): 27.4%
drug-induced phospholipidosis (A549-ACE2 [9]; 6.66667 µM, 24 h): 92%
drug-induced phospholipidosis (A549-ACE2 [9]; 6.66667 µM, 48 h): 78.5%
drug-induced phospholipidosis (A549-ACE2 [9]; 6.66667 µM, 72 h): 73.8%
drug-induced phospholipidosis (A549-ACE2 [9]; 10 µM, 24 h): 102%
drug-induced phospholipidosis (A549-ACE2 [9]; 10 µM, 48 h): 100%
drug-induced phospholipidosis (A549-ACE2 [9]; 10 µM, 72 h): 102%
drug-induced phospholipidosis (A549-ACE2 [9]; 30 µM, 24 h): 95.8%
drug-induced phospholipidosis (A549-ACE2 [9]; 30 µM, 48 h): 95%
cell viability (HepG2 [10]; 1 nM): 104%
cell viability (HepG2 [10]; 10 nM): 94.5%
cell viability (HepG2 [10]; 100 nM): 99.6%
cell viability (HepG2 [10]; 1000 nM): 108%
cell viability (HepG2 [10]; 10000 nM): 86.8%
cell viability (Caco-2 [11]; 1 nM): 98.8%
cell viability (Caco-2 [11]; 10 nM): 103%
cell viability (Caco-2 [11]; 100 nM): 90.4%
cell viability (Caco-2 [11]; 1000 nM): 107%
cell viability (Caco-2 [11]; 10000 nM): 83.2%
cell viability (U2OS [12]; 1 nM): 95.5%
cell viability (U2OS [12]; 10 nM): 98.1%
cell viability (U2OS [12]; 100 nM): 94.4%
cell viability (U2OS [12]; 1000 nM): 99.5%
cell viability (U2OS [12]; 10000 nM): 93%
cell viability (Vero E6 [13]; 1 nM): 93.7%
cell viability (Vero E6 [13]; 10 nM): 92.9%
cell viability (Vero E6 [13]; 100 nM): 90.4%
cell viability (Vero E6 [13]; 1000 nM): 98.3%
cell viability (Vero E6 [13]; 10000 nM): 92.8%
cell viability (Calu-3 [14]; 1 nM): 94.9%
cell viability (Calu-3 [14]; 10 nM): 103%
cell viability (Calu-3 [14]; 100 nM): 102%
cell viability (Calu-3 [14]; 1000 nM): 109%
cell viability (Calu-3 [14]; 10000 nM): 80.8%
cell count ([15]; 0.3 µM): 98%
cell count ([15]; 3 µM): 116%
cell count ([15]; 10 µM): 119%
cell count ([15]; 30 µM): 100%
relative viability EC50 (HepG2 [16]): > 10 µM
relative viability EC50 (Caco-2 [17]): > 10 µM
relative viability EC50 (U2OS [18]): > 10 µM
relative viability EC50 (Vero E6 [19]): > 10 µM
relative viability EC50 (Calu-3 [20]): > 10 µM

CSc1ccc2c(c1)N(CCC1CCCCN1C)c1ccccc1S2 (stereo not given) [thioridazine]
phospholipidosis EC50 (A549-ACE2 [1]; 24 h): 3.21 µM
phospholipidosis EC50 (A549-ACE2 [1]; 48 h): 4.53 µM
phospholipidosis EC50 (A549-ACE2 [1]; 72 h): 5.9 µM
morphology score ([2]; 0.1 µM): 0.31
morphology score ([2]; 0.3 µM): 0.1
morphology score ([2]; 1 µM): 0.34
morphology score ([2]; 3 µM): 0.84
drug sensitivity score (HepG2 [3]): 2.8
drug sensitivity score (Caco-2 [4]): 1.1
drug sensitivity score (U2OS [5]): 0.8
drug sensitivity score (Vero E6 [6]): 1.2
drug sensitivity score (Calu-3 [7]): 4.3
SARS-CoV-2 infection rate ([8]; 0.1 µM): 94%
SARS-CoV-2 infection rate ([8]; 0.3 µM): 101%
SARS-CoV-2 infection rate ([8]; 1 µM): 82%
SARS-CoV-2 infection rate ([8]; 3 µM): 21%
drug-induced phospholipidosis (A549-ACE2 [9]; 0.3 µM, 24 h): 14.9%
drug-induced phospholipidosis (A549-ACE2 [9]; 0.3 µM, 48 h): 9.22%
drug-induced phospholipidosis (A549-ACE2 [9]; 0.3 µM, 72 h): 7.14%
drug-induced phospholipidosis (A549-ACE2 [9]; 0.833333 µM, 24 h): 4.83%
drug-induced phospholipidosis (A549-ACE2 [9]; 0.833333 µM, 48 h): 4.87%
drug-induced phospholipidosis (A549-ACE2 [9]; 0.833333 µM, 72 h): 2.71%
drug-induced phospholipidosis (A549-ACE2 [9]; 3.33333 µM, 24 h): 47.8%
drug-induced phospholipidosis (A549-ACE2 [9]; 3.33333 µM, 48 h): 28.5%
drug-induced phospholipidosis (A549-ACE2 [9]; 3.33333 µM, 72 h): 20%
drug-induced phospholipidosis (A549-ACE2 [9]; 6.66667 µM, 24 h): 79.3%
drug-induced phospholipidosis (A549-ACE2 [9]; 6.66667 µM, 48 h): 86.4%
drug-induced phospholipidosis (A549-ACE2 [9]; 6.66667 µM, 72 h): 83.7%
drug-induced phospholipidosis (A549-ACE2 [9]; 10 µM, 24 h): 86%
drug-induced phospholipidosis (A549-ACE2 [9]; 10 µM, 48 h): 99.3%
drug-induced phospholipidosis (A549-ACE2 [9]; 10 µM, 72 h): 117%
drug-induced phospholipidosis (A549-ACE2 [9]; 30 µM, 24 h): 44.9%
cell viability (HepG2 [10]; 1 nM): 105%
cell viability (HepG2 [10]; 10 nM): 110%
cell viability (HepG2 [10]; 100 nM): 104%
cell viability (HepG2 [10]; 1000 nM): 102%
cell viability (HepG2 [10]; 10000 nM): 44.5%
cell viability (Caco-2 [11]; 1 nM): 110%
cell viability (Caco-2 [11]; 10 nM): 100%
cell viability (Caco-2 [11]; 100 nM): 105%
cell viability (Caco-2 [11]; 1000 nM): 105%
cell viability (Caco-2 [11]; 10000 nM): 69.5%
cell viability (U2OS [12]; 1 nM): 105%
cell viability (U2OS [12]; 10 nM): 103%
cell viability (U2OS [12]; 100 nM): 102%
cell viability (U2OS [12]; 1000 nM): 103%
cell viability (U2OS [12]; 10000 nM): 74.7%
cell viability (Vero E6 [13]; 1 nM): 106%
cell viability (Vero E6 [13]; 10 nM): 103%
cell viability (Vero E6 [13]; 100 nM): 104%
cell viability (Vero E6 [13]; 1000 nM): 102%
cell viability (Vero E6 [13]; 10000 nM): 69.7%
cell viability (Calu-3 [14]; 1 nM): 104%
cell viability (Calu-3 [14]; 10 nM): 110%
cell viability (Calu-3 [14]; 100 nM): 96.8%
cell viability (Calu-3 [14]; 1000 nM): 96.2%
cell viability (Calu-3 [14]; 10000 nM): 31.4%
cell count ([15]; 0.1 µM): 106%
cell count ([15]; 0.3 µM): 104%
cell count ([15]; 1 µM): 110%
cell count ([15]; 3 µM): 121%
relative viability EC50 (HepG2 [16]): 3.36 µM
relative viability EC50 (Calu-3 [20]): 2.72 µM
